ChEMBL document CHEMBL1158951, “Additional bioactive heptenes from Melodorum fruticosum” (1991)
≈ marks a conversion by molar mass, not a printed value.

Key:
Format in all cases: functional
Conditions in all cases: read-out: ED50 (the source's name)
A549 = experiment: Cytotoxicity against human A549 cells
MCF7 = experiment: Cytotoxicity against human MCF7 cells
HT-29 = experiment: Cytotoxicity against human HT-29 cells
SK-MEL-5 = experiment: Cytotoxicity against human SK-MEL-5 cells
Malme-3M = experiment: Cytotoxicity against human MALME-3M cells

Compound | EC50 (A549) | EC50 (MCF7) | EC50 (HT-29) | EC50 (SK-MEL-5) | EC50 (Malme-3M)
O=C1C=C/C(=C/C(O)COC(=O)c2ccccc2)O1 (stereo unspecified) [MELODORINOL] | 5.89 µg/mL (≈ 22.6 µM) | 1.99 µg/mL (≈ 7.65 µM) | 2.87 µg/mL (≈ 11 µM) | 3.75 µg/mL (≈ 14.4 µM) | 3.32 µg/mL (≈ 12.8 µM)
CC(=O)OC(/C=C1/C=CC(=O)O1)COC(=O)c1ccccc1 (stereo unspecified) [ACETYLMELODORINOL] | 2.89 µg/mL (≈ 9.56 µM) | 1.96 µg/mL (≈ 6.48 µM) | 2.38 µg/mL (≈ 7.87 µM) | 4.21 µg/mL (≈ 13.9 µM) | 2.74 µg/mL (≈ 9.06 µM)
CCOC(=O)/C=C/C(=O)/C=C/COC(=O)c1ccccc1 [HOMOMELODIENONE] | 36.9 µg/mL (≈ 128 µM) | 25.6 µg/mL (≈ 88.8 µM) | 37.9 µg/mL (≈ 131 µM) | – | –
CCOC(=O)/C=C\C(=O)/C=C/COC(=O)c1ccccc1 [HOMOISOMELODIENONE] | 6.7 µg/mL (≈ 23.2 µM) | 4.26 µg/mL (≈ 14.8 µM) | 36.3 µg/mL (≈ 126 µM) | – | –
COC(=O)/C=C/C(=O)CC(O)COC(=O)c1ccccc1 (stereo unspecified) | 3.28 µg/mL (≈ 11.2 µM) | 1.92 µg/mL (≈ 6.57 µM) | 0.253 µg/mL (≈ 0.866 µM) | 1.04 µg/mL (≈ 3.56 µM) | 1.1 µg/mL (≈ 3.76 µM)
